Measurements from patent US20170368119A1, “METHODS AND COMPOSITIONS FOR TREATING C-MET ASSOCIATED CANCERS” (YEASTERN BIOTECH CO., LTD, priority 2014, published 2017).

Legend:
HCC329 [1] = assay: cell proliferation assay (doubling time), HCC329; type: cell-based, human; conditions: 0.5, 1.0 and 2.0 μg/ml, dose dependent, 72 hours, untreated = 100%
Method: (§1) The most motile HCC cell lines identified in Example 2, namely HCC372 and HCC329, were employed for testing the molecular and cellular effects of FIP-gts on HCC, in comparison with those of JNJ-38877605 (abbreviated hereafter as JNJ), which is an ATP-competitive inhibitor for the catalytic activity of c-Met. In the cell proliferation assay, HCC329 and HCC372 cells were untreated or treated with FIP-gts (prepared in Example 4) at 0.5, 1.0 or 2.0 μg/ml for 72 hours. Cell numbers were counted, and the relative doubling times of the respective treated groups were determined by taking the data of the untreated group as 100%. The wound healing migration assay was repeated as described in Example 2, except that HCC329 and HCC372 were additionally treated with FIP-gts and JNJ (MedKoo Biosciences, Chapel Hill, N.C., USA), respectively, for 48 hours. Relative migration was analyzed quantitatively by taking the motility of untreated cells (Con) as 1.0. The results were shown in FIGS. 3A and 3B, in which the symbols (**), (*) and (#) represent statistical significance (p<0.005 and p<0.05, respectively, n=3) between the indicated inhibitor-treated samples and untreated HCC329 or HCC372 control group.

HCC372 [2] = assay: cell proliferation assay (doubling time), HCC372; type: cell-based, human; conditions: 0.5, 1.0 and 2.0 μg/ml, dose dependent, 72 hours, untreated = 100%
Method: as §1

HCC372 [3] = assay: wound healing migration assay, HCC372; type: cell-based, human; conditions: FIP-gts 2.0 μg/ml, 48 hours
Method: (§2) The HCC cells were cultivated on 24-well plates accompanied with a wound healing culture insert until confluence followed by serum starvation of the cells for 24 hours and the culture insert were then removed. After appropriate treatments, pictures were taken under a phase contrast microscope at indicated times. Quantitative analysis of motility of the HCC cell lines described in Example 1 was performed by directly counting the cells migrating into the blanking area at 48 hours using Image J. Software available from the NIH website. In general, motilities of the mesenchymal HCCs were higher than those of the epithelial ones.
The most motile HCC cell lines identified in Example 2, namely HCC372 and HCC329, were employed for testing the molecular and cellular effects of FIP-gts on HCC, in comparison with those of JNJ-38877605 (abbreviated hereafter as JNJ), which is an ATP-competitive inhibitor for the catalytic activity of c-Met. In the cell proliferation assay, HCC329 and HCC372 cells were untreated or treated with FIP-gts (prepared in Example 4) at 0.5, 1.0 or 2.0 μg/ml for 72 hours. Cell numbers were counted, and the relative doubling times of the respective treated groups were determined by taking the data of the untreated group as 100%. […] Relative migration was analyzed quantitatively by taking the motility of untreated cells (Con) as 1.0. […]

HCC329 [4] = assay: wound healing migration assay, HCC329; type: cell-based, human; conditions: FIP-gts, 48 hours
Method: The HCC cells were cultivated on 24-well plates accompanied with a wound healing culture insert until confluence followed by serum starvation of the cells for 24 hours and the culture insert were then removed. After appropriate treatments, pictures were taken under a phase contrast microscope at indicated times.
Cell numbers were counted, and the relative doubling times of the respective treated groups were determined by taking the data of the untreated group as 100%. […] Relative migration was analyzed quantitatively by taking the motility of untreated cells (Con) as 1.0.

HepG2 = assay: wound healing migration assay, HGF-induced HepG2; type: cell-based, human; conditions: 25 nM HGF, FIP-gts 2.0 μg/ml versus JNJ 26.5 nM, 48 hours
Method: as §2
In a separate experiment, human hepatoma cell line HepG2, a non-motile HCC cell line conventionally used for observing HGF-inducible molecular and cellular effects, was employed. In this experiment, the wound healing migration assay described in Example 2 was again repeated, except that HepG2 (purchased from Bioresource Collection and Research Center (BCRC), Hsinchu, Taiwan) was treated with FIP-gts or JNJ-38877605 for 48 hours in the presence or absence of 25 nM HGF (PeproTech Inc., Rocky Hill, N.J., USA). Relative migration was quantitatively analyzed taking the motility of untreated cells (Con) as 1.0. […]

HCC329 [5] = assay: HCC329 tumor development and metastasis in SCID mice model; type: in vivo; conditions: FIP-gts 4.0-20 μg/g mouse, intraperitoneal twice a week, 2 months
Method: HCC329 cells (approximately 2×10^7) suspended in 100 μl Dulbecco's Modified Eagle Medium (DMEM; Gibco, Grand Island, N.Y., USA) were directly injected into the subserosa of the middle liver lobe of the SCID mice, followed by intraperitoneal administration twice a week with DMEM as a vehicle, vehicle-containing FIP-gts (4.0-20 μg/g mouse) or JNJ (0.5-2.0 nmole/g mouse).
The mice were sacrificed 2 months after injection. Tumor mass was measured and the occurrence of intrahepatic metastasis and/or extrahepatic metastasis was recorded. Nodules with diameter of more than 0.1-0.2 cm observed on the left or right lobes were recognized as secondary tumor foci. […] Extra-hepatic metastasis was defined to be the case where the tumors appearing in organs other than liver such as in intestine. During the animal experiment, the regulations relevant to the care and use of laboratory animals were followed. This was approved by the Institutional Animal Care and Use Committee (IACUC) in Tzu Chi University (No. of consent form: 102080).

[6] = toxicity test on normal SCID mice; type: in vivo; conditions: 20 μg/g mouse intraperitoneal, 2-3 month, data not shown
Method: In comparison, the effect of c-Met inhibitor JNJ on tumor progression of HCC329 was not prominent (FIG. 4). The toxicity test of FIP-gts on SCID mice was also performed by treating 4 normal SCID mice without inoculation of HCC329.

[7] = tested on: p-JNK, p-ERK, p-AKT, p-EGFR in HCC329; assay: immuno-blotting of signaling molecules, HCC329; type: cell-based, human
From the text: To investigate the molecular mechanism of FIP-gts in suppression of tumor progression of HCCs, the effects of FIP-gts on the activity and/or quantity of the critical members present in c-Met dependent signaling pathway, including c-Met, phosphorylated c-Met (p-c-Met) and downstream effectors p-JNK and p-ERK, were examined in HCCs. […] Total proteins were harvested from the cells and subjected to immuno-blotting analysis using GAPDH as a loading control. Antibodies for p-c-Met, p-JNK, p-ERK and p-paxillin (S178), GAPDH and ERK were purchased from Santa Cruz Biotechnology (California, USA). The band intensities on the blots were quantified with Image J. Software. Relative band intensity of each molecule was calculated, taking the data of untreated HCC372 or HCC329 as 1.0.

[8] = tested on: c-Met, p-c-Met, p-JNK, p-ERK, p-AKT in HCC372; assay: immuno-blotting of c-Met dependent signaling, HCC372; type: cell-based, human; conditions: 2.0 μg/ml
Method: To investigate the molecular mechanism of FIP-gts in suppression of tumor progression of HCCs, the effects of FIP-gts on the activity and/or quantity of the critical members present in c-Met dependent signaling pathway, including c-Met, phosphorylated c-Met (p-c-Met) and downstream effectors p-JNK and p-ERK, were examined in HCCs. HCC329 and HCC372 cells were treated with FIP-gts (2 μg/ml) for 4 or 24 hours. Total proteins were harvested from the cells and subjected to immuno-blotting analysis using GAPDH as a loading control. Antibodies for p-c-Met, p-JNK, p-ERK and p-paxillin (S178), GAPDH and ERK were purchased from Santa Cruz Biotechnology (California, USA). The band intensities on the blots were quantified with Image J. Software. Relative band intensity of each molecule was calculated, taking the data of untreated HCC372 or HCC329 as 1.0. The results were shown in FIGS. 5A and 5B, in which (**) (##) and (*) (#) represent statistical significance (p<0.005 and p<0.05, respectively, n=3) between the indicated inhibitor-treated sample and untreated HCC329 or HCC372 control group.

[9] = tested on: HGF-induced c-Met signaling in HepG2; assay: immuno-blotting of HGF-induced c-Met signaling, HepG2; type: cell-based, human; conditions: 2.0 μg/ml, 0.5 hour, HGF 25 nM
Method: HepG2 cells were treated with FIP-gts (2.0 μg/ml) for 0.5 hour in the presence or absence of HGF (25 nM). Total proteins were harvested from the cells and immuno-blotting analysis was performed as described in Example 6, except using ERK as the loading control. The results were shown in FIGS. 5C and 5D, in which (**) represent statistical significance (p<0.005, n=3) between the indicated HGF/FIP-gts co-treated sample and the HGF alone group.

## FIP-gts: fungal immunomodulatory protein of SEQ ID NO: 1 (Ganoderma tsugae), recombinantly expressed in Saccharomyces cerevisiae
HCC329 [1]
  increase of doubling time: 25-46%
HCC372 [2]
  increase of doubling time: 14-47%
HCC372 [3]
  suppression of cell migration: 95%
HCC329 [4]
  suppression of cell migration: 80%
HepG2
  prevention of HGF-induced cell migration: much more effectively than JNJ
HCC329 [5]
  secondary tumors on liver lobes (intra-hepatic metastasis): normal liver lobule structure
  tumor progression (primary tumor growth and intra-metastasis) of HCC329: dramatically suppressed tumor progression
[6]
  adverse effects (activity of animals, integrity of organs): no adverse effects was observed
[7]; 2.0 μg/ml, 24 hours
  decrease of phosphorylation of AKT: 18%
  decrease of phosphorylation of ERK: 51%
  decrease of phosphorylation of JNK: 85%
[7]; 16 hours, versus untreated, data not shown
  phosphorylated EGFR (p-EGFR) level: remarkably reduced
[8]
  effect on p-JNK: didn't decrease p-JNK at all
[8]; 4th hour
  suppression of expression of Met protein: 90-95%
  suppression of phosphorylation of AKT: 80-95%
  suppression of phosphorylation of ERK: 80-95%
  suppression of phosphorylation of Met (at Tyr1234): 55%
[9]
  suppression of HGF-induced p-ERK: 85-90%
  suppression of HGF-induced p-JNK: 85-90%
  suppression of HGF-induced p-c-Met: 85-90%
  suppression of HGF-induced phosphorylated paxillin (at Ser 178): 85-90%
